Like-named read-outs stand apart in the source and are kept apart here.
Target: T1, CBG (corticosteroid-binding globulin, transcortin) (Sus scrofa, UniProt Q9GK37)
T1 construct: quantity of cortisol specifically fixed to the glycoproteins adsorbed on the gel; from tissue; host or cells: pig blood plasma (Large White and Meishan, n = 12 each)
T1 sequence (Q9GK37 23-406): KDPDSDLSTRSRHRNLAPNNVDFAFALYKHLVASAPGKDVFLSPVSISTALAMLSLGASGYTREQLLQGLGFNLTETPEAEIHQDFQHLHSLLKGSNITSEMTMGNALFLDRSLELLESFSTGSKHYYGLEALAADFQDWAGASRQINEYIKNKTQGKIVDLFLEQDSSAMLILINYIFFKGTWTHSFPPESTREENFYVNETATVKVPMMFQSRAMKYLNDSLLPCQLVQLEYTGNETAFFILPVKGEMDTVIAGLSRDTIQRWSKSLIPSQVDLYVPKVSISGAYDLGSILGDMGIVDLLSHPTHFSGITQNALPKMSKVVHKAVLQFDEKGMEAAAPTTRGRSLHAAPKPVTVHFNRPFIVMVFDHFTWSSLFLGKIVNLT
Test: solid phase fixation (radiobinding) test of cortisol binding to plasma CBG, Concavalin A-Sepharose, Scatchard analysis
Design: species or system pig
Settings: n = 12, plasma CBG, 4° C., read-out: Kd (affinity of CBG for cortisol)
Description: The binding capacity of CBG and its affinity for cortisol were measured at 4° C. by a solid phase fixation test using a Concavalin A-Sepharose column (Pugeat et al., 1984). The association equilibrium constant (Ka) and the capacity of CBG for cortisol were calculated by a Scatchard analysis using “bound” as the quantity of cortisol specifically fixed to the glycoproteins adsorbed on the gel and “free” as the concentration of cortisol in the aqueous phase.
At the protein level, the capacity of binding to cortisol and the affinity constant of CBG were compared between the LW and Meishan pigs by radiobinding studies. No difference in affinity was found between the two breeds of pigs.

Kd (Large White pigs): 0.38 ± 0.05 nM
Kd (Meishan pigs): 0.46 ± 0.05 nM
SMILES: C[C@]12CCC(=O)C=C1CC[C@@H]1[C@@H]2[C@@H](O)C[C@@]2(C)[C@H]1CC[C@]2(O)C(=O)CO [cortisol]

Reference: patent US20080115236A1, “CBG gene as a genetic marker of hypercortisolism and associated pathologies” (Institut National de la Recherche Agronomique (INRA), a …, priority 2001, published 2008)
